Values of other authors, collected in the PKSmart pharmacokinetics tables (Seal et al. 2025).

Test: Lombardo, Berellini, Obach 2018, Drug Metab Dispos 46:1466, doi 10.1124/dmd.118.082966
Settings: human; for MRT / Vd / clearance / half-life: in vivo, iv; for fraction unbound: plasma

SMILES | MRT | Vd | clearance | half-life | fraction unbound
Cn1nnc(-c2ccc(-c3ccc(N4C[C@H](CO)OC4=O)cc3F)cn2)n1 | 12.6 h | 0.91 L/kg | 0.0714 L/h/kg | 10.2 h | 0.11
CCc1c(O)cc(O)c(C(=O)c2ccc(OCCN3CCOCC3)c(OC)c2)c1CC(=O)N(CCOC)CCOC | 3.21 h | 1.32 L/kg | 0.412 L/h/kg | 5.94 h | –
CCCCN1CCCC1C(=O)Nc1c(C)cc(C)cc1C (configuration not stated) | 1.51 h | 1.73 L/kg | 1.15 L/h/kg | 1.58 h | –
CCCCC(C)(C)[C@@H](O)/C=C\[C@@H]1[C@H](C/C=C/CCCC(=O)O)[C@@H](Cl)C[C@@H]1O | 0.2 h | 0.16 L/kg | 0.792 L/h/kg | 0.8 h | –
CC(C)(C)C(NC(=O)C(CC1CCCC1)CN(O)C=O)C(=O)N1CCN(Cc2ccc3c(c2)OCO3)CC1 (configuration not stated) | 5.9 h | 1.1 L/kg | 0.186 L/h/kg | 9.4 h | 0.2
CC(C)COC[C@@H](CN(Cc1ccccc1)c1ccccc1)N1CCCC1 | 19.3 h | 10.1 L/kg | 0.522 L/h/kg | 14.9 h | 0.001
O=C1CCC[C@@H]2[C@H]3CCC[N@+]4(O)CCC[C@@H](CN12)[C@@H]34 | 1.33 h | 0.61 L/kg | 0.46 L/h/kg | 1.69 h | –
COC1=C(C(=O)O)N2C(=O)C(NC(=O)C(N)C3=CCC=CC3)[C@H]2SC1 (some centres not stated) | 0.59 h | 0.17 L/kg | 0.287 L/h/kg | 0.74 h | 0.1
C=CCC1=CC(C)C[C@H](C)C[C@H](OC)[C@H]2O[C@@](O)(C(=O)C(=O)N3CCCCC3C(=O)O[C@H](/C(C)=C/[C@@H]3CC[C@@H](O)[C@H](OC)C3)[C@H](C)[C@@H](O)CC1=O)[C@H](C)C[C@@H]2OC (some centres not stated) | 27 h | 1.2 L/kg | 0.042 L/h/kg | 26 h | –
COc1c(C)c2c(c(O)c1C/C=C(\C)CCC(=O)O)C(=O)OC2 | 6.5 h | 0.77 L/kg | 0.14 L/h/kg | 9.7 h | 0.02
COC(C(=O)N1Cc2[nH]nc(NC(=O)c3ccc(N4CCN(C)CC4)cc3)c2C1)c1ccccc1 (configuration not stated) | 6.8 h | 2.5 L/kg | 0.366 L/h/kg | 25 h | –
O=C(Cn1cnnn1)NC1C(=O)N2C(C(=O)O)=C(CSc3nncs3)CS[C@H]12 (some centres not stated) | – | – | 0.322 L/h/kg | 0.64 h | –
CN(C)[C@@H]1C(O)=C(C(N)=O)C(=O)[C@@]2(O)C(O)=C3C(=O)c4c(O)ccc(Cl)c4[C@@](C)(O)[C@H]3C[C@@H]12 | 7.4 h | 0.9 L/kg | 0.12 L/h/kg | 7 h | –
O=C(O)C1=C(CSc2nnnn2CS(=O)(=O)O)CS[C@@H]2C(NC(=O)C(O)c3ccccc3)C(=O)N12 (some centres not stated) | 5.8 h | 0.14 L/kg | 0.0228 L/h/kg | 5.1 h | 0.02
CCOc1ncc(S(=O)(=O)N2CCN(CC)CC2)cc1-c1nc(=O)c2nn(CCOC)c(CC)c2[nH]1 | 2.8 h | 2.4 L/kg | 0.858 L/h/kg | 4 h | –
CC[C@]1(O)C[C@H]2CN(CCc3c([nH]c4ccccc34)[C@@](C(=O)OC)(c3cc4c(cc3OC)N(C)[C@H]3[C@@](O)(C(N)=O)[C@H](O)[C@]5(CC)C=CCN6CC[C@]43[C@@H]65)C2)C1 | 38 h | 5 L/kg | 0.132 L/h/kg | 35 h | –
CN[C@@H]1[C@H](O)[C@H](NC)[C@H]2O[C@@]3(O)C(=O)C[C@@H](C)O[C@H]3O[C@@H]2[C@H]1O | 2.2 h | 0.13 L/kg | 0.0594 L/h/kg | 1.8 h | –

SMILES | MRT | Vd | clearance | half-life | fraction unbound
NC(=O)N1c2ccccc2CC(O)c2ccccc21 (configuration not stated) | 13.6 h | 0.72 L/kg | 0.0528 L/h/kg | 9.8 h | 0.7
C=C[C@]1(C)C[C@@H](OC(=O)CS[C@@H]2CC[C@@H](N)C[C@H]2O)[C@]2(C)[C@H](C)CC[C@]3(CCC(=O)[C@H]32)[C@@H](C)[C@@H]1O | 5.53 h | 1.32 L/kg | 0.238 L/h/kg | 6.4 h | 0.17
CC1(C)S[C@@H]2C(NC(=O)C(NC(=O)N3CCN(/N=C/c4ccco4)C3=O)c3ccc(O)cc3)C(=O)N2C1C(=O)O (some centres not stated) | 0.92 h | 0.2 L/kg | 0.217 L/h/kg | 1.3 h | –
C=CCC1(C(C)C#CCC)C(=O)NC(=O)N(C)C1=O (configuration not stated) | 1.5 h | 1.1 L/kg | 0.72 L/h/kg | 1.6 h | 0.27
C[C@@H](NCCc1ccc(O)cc1)[C@@H](O)c1ccc(O)cc1 | 2.4 h | 4.4 L/kg | 1.86 L/h/kg | 2.6 h | 0.64
CCOCCn1c(C2CCN(CCc3ccc(C(C)(C)C(=O)O)cc3)CC2)nc2ccccc21 | 3.56 h | 0.61 L/kg | 0.172 L/h/kg | 5.16 h | 0.13
CCOC(=O)[C@]1(c2ccccc2)CCC=C[C@H]1NC | 4.2 h | 2.5 L/kg | 0.594 L/h/kg | 4.4 h | –
CC[C@H](O)[C@@H](C)[C@H]1O[C@@H]1C[C@@](C)(O)/C=C/C=C(\C)[C@H]1OC(=O)C[C@H](O)CC[C@@](C)(O)[C@@H](OC(=O)N2CCN(C3CCCCCC3)CC2)C=C[C@@H]1C | 3.5 h | 10.1 L/kg | 2.87 L/h/kg | 9.2 h | –
CN(C)C[C@H](c1ccc(O)cc1)C1(O)CCCCC1 | 11.8 h | 3.5 L/kg | 0.294 L/h/kg | 8.4 h | 0.7
C[C@H]1COc2c(N3CCN(C)CC3)c(F)cc3c(=O)c(C(=O)O)cn1c23 | 11 h | 1.2 L/kg | 0.114 L/h/kg | 8.8 h | –
N=C(N)c1ccc(OCCCCCOc2ccc(C(=N)N)cc2)cc1 | 12 h | 53 L/kg | 4.44 L/h/kg | 25 h | 0.09
Cn1c(NCCN(CCO)CCCc2ccc([N+](=O)[O-])cc2)cc(=O)n(C)c1=O | 1.56 h | 1.96 L/kg | 1.25 L/h/kg | 1.52 h | 0.09
COCCCN1CCC(NC(=O)c2cc(Cl)c(N)c3c2OCC3)CC1 | 32.2 h | 8.73 L/kg | 0.273 L/h/kg | 22.5 h | 0.7
CCN(CC)Cc1cc(Nc2ccnc3cc(Cl)ccc23)ccc1O | 1.34 h | 17.4 L/kg | 13 L/h/kg | 2.1 h | –
CC(C)=CCC[C@](C)(O[C@@H]1O[C@H](CO)[C@@H](O)[C@H](O)[C@H]1O)[C@H]1CC[C@]2(C)[C@@H]1[C@H](O)C[C@@H]1[C@@]3(C)CC[C@H](O[C@@H]4O[C@H](CO)[C@@H](O)[C@H](O)[C@H]4O[C@@H]4O[C@H](CO)[C@@H](O)[C@H](O)[C@H]4O)C(C)(C)[C@@H]3CC[C@]12C | 20.2 h | 0.11 L/kg | 0.0054 L/h/kg | 18.5 h | –
NCCCC(O)(P(=O)(O)O)P(=O)(O)O | 2.1 h | – | – | – | –
COC(=O)NC(C(=O)N1CCC[C@H]1c1ncc(-c2ccc(-c3ccc(-c4cnc([C@@H]5CCCN5C(=O)C(NC(=O)OC)C(C)C)[nH]4)cc3)cc2)[nH]1)C(C)C (some centres not stated) | 11.2 h | 0.67 L/kg | 0.06 L/h/kg | 13.5 h | 0.01
